Source: patent US11053213B2, “Pharmaceutical compounds” (ALMAC DISCOVERY LIMITED, priority 2016, dated 2021)

target: USP19 (Homo sapiens (Human), UniProt O94966); assay: USP19 activity assay (fluorescence polarisation, Ubiquitin-Lys-TAMRA substrate); assay type: biochemical; conditions: full-length USP19 2.5 nM, 30 min pre-incubation, Ub substrate 500 nM; average of at least two duplicate experiments
Description: Unless otherwise stated, all other reagents were purchased from Sigma. Enzymatic reactions were conducted in black flat bottom polystyrene 384-well plates (Nunc) and 30 μL total volume. […] Inhibitors were stored as 10 mM DMSO stocks in an inert environment (low humidity, dark, low oxygen, room temperature) using the Storage Pod System and serial dilutions were prepared in buffer just prior to the assay (from 200 μM to 2 pM, 8-18 data point curve). Following incubation at RT for 30 min, the enzymatic reactions were initiated by dispensing the Ub substrate (500 nM, 10 μL). FP was measured every 15 min over a period of 90 min (within the linear range of the assay) using a Synergy 4 plate reader (BioTek) exciting at 530 nm and measuring the amount of parallel and perpendicular light at 575 nm. The FP signal was subsequently normalised to the no compound control.

USP19, sequence (O94966 whole entry): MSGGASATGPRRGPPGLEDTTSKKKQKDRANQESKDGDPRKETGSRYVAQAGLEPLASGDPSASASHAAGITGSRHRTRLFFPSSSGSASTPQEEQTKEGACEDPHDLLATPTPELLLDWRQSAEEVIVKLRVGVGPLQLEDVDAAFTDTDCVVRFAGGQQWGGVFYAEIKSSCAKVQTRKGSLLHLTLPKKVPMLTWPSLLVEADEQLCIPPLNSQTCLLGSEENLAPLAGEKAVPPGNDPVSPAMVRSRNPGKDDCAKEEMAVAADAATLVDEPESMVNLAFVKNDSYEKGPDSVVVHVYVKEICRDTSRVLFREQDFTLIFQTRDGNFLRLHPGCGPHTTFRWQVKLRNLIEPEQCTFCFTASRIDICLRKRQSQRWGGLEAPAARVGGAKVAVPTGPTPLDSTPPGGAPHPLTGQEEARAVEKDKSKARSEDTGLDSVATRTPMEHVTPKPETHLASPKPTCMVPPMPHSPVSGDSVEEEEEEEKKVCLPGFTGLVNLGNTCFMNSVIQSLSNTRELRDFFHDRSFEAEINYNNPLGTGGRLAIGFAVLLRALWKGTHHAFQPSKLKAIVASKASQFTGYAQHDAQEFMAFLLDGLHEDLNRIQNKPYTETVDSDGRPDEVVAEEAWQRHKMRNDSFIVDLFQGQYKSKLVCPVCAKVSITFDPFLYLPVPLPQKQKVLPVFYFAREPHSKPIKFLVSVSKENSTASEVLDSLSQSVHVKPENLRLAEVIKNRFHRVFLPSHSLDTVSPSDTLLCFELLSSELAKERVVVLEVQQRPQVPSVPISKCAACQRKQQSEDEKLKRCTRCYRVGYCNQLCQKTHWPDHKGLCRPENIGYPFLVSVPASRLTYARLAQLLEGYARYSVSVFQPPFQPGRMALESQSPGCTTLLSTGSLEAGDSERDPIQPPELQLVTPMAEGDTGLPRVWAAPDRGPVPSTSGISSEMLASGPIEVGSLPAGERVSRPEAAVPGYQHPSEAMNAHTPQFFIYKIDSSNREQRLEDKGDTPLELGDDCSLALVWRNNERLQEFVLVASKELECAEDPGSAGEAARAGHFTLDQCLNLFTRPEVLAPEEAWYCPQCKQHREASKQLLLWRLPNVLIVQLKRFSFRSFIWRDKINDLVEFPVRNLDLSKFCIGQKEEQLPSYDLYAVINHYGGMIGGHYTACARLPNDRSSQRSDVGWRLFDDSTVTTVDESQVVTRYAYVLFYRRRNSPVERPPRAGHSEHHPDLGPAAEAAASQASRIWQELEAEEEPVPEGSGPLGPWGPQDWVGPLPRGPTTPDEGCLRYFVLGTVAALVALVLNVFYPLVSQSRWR

Compound | IC50 [µM]
C[C@H](CC1CCCCC1)C(=O)N1CCC(O)(Cn2cnc(-c3ccccc3)cc2=O)C(C)(C)C1 (mixture of isomers) [Example 50, 3-(((R)-1-((R)-3-Cyclohexyl-2-methylpropanoyl)-4-hydroxy-3,3-dimethylpiperidin-4-yl)methyl)-6-phenylpyrimidin-4(3H)-one and 3-(((S)-1-((R)-3-Cyclohexyl-2-methylpropanoyl)-4-hydroxy-3,3-dimethylpiperidin-4-yl)methyl)-6-phenylpyrimidin-4(3H)-one] | < 0.5
CC(C)N(C)C(=O)c1cn(CC2(O)CCN(C(=O)[C@H](C)CC3CCCCC3)CC2(C)C)c(=O)cc1-c1ccccc1 (mixture of isomers) [Example 73, 1-(((R)-1-((R)-3-Cyclohexyl-2-methylpropanoyl)-4-hydroxy-3,3-dimethylpiperidin-4-yl)methyl)-N-isopropyl-N-methyl-6-oxo-4-phenyl-1,6-dihydropyridine-3-carboxamide and 1-(((S)-1-((R)-3-Cyclohexyl-2-methylpropanoyl)-4-hydroxy-3,3-dimethylpiperidin-4-yl)methyl)-N-isopropyl-N-methyl-6-oxo-4-phenyl-1,6-dihydropyridine-3-carboxamide] | < 0.5
CC(Cc1ccccc1)C(=O)N1CCC(O)(Cn2cnc(-c3ccccc3F)cc2=O)CC1 (racemic) [Example 5, (R,S)-6-(2-Fluorophenyl)-3-((4-hydroxy-1-(2-methyl-3-phenylpropanoyl)piperidin-4-yl)methyl)pyrimidin-4(3H)-one] | 5 to 50
CC(C)N(C)C(=O)c1cn(CC2(O)CCN(C(=O)C3(C)CCc4ccccc4C3)CC2)c(=O)cc1-c1ccccc1F (racemic) [Example 14, (R,S)-4-(2-Fluorophenyl)-1-((4-hydroxy-1-(2-methyl-1,2,3,4-tetrahydronaphthalene-2-carbonyl)piperidin-4-yl)methyl)-N-isopropyl-N-methyl-6-oxo-1,6-dihydropyridine-3-carboxamide] | 0.5 to 5
O=C([C@@H]1C[C@@H]1c1ccccc1)N1CCC(O)(Cn2cnc(-c3ccccc3F)cc2=O)CC1 (racemic) [Example 41, rac-6-(2-Fluorophenyl)-3-((4-hydroxy-1-(cis-2-phenylcyclopropanecarbonyl)piperidin-4-yl)methyl)pyrimidin-4(3H)-one] | 5 to 50
O=C(C(O)CC1CCCCC1)N1CCC(O)(Cn2cnc(-c3ccccc3F)cc2=O)CC1 (racemic) [Example 44, (R,S)-3-((1-(3-Cyclohexyl-2-hydroxypropanoyl)-4-hydroxypiperidin-4-yl)methyl)-6-(2-fluorophenyl)pyrimidin-4(3H)-one] | 5 to 50
O=C(C(F)CC1CCCCC1)N1CCC(O)(Cn2cnc(-c3ccccc3F)cc2=O)CC1 (racemic) [Example 49, (R,S)-3-((1-(3-Cyclohexyl-2-fluoropropanoyl)-4-hydroxypiperidin-4-yl)methyl)-6-(2-fluorophenyl)pyrimidin-4(3H)-one] | 50 to 250
CC(CC1CCC1)C(=O)N1CCC(O)(Cn2cnc(-c3ccccc3F)cc2=O)CC1 (racemic) [Example 57, (R,S)-3-((1-(3-Cyclobutyl-2-methylpropanoyl)-4-hydroxypiperidin-4-yl)methyl)-6-(2-fluorophenyl)pyrimidin-4(3H)-one] | 5 to 50
CC(CC1CCCCCC1)C(=O)N1CCC(O)(Cn2cnc(-c3ccccc3F)cc2=O)CC1 (racemic) [Example 58, (R,S)-3-((1-(3-Cycloheptyl-2-methylpropanoyl)-4-hydroxypiperidin-4-yl)methyl)-6-(2-fluorophenyl)pyrimidin-4(3H)-one] | 5 to 50
CC1(C)CN(C(=O)c2c[nH]nc2C2CCCCC2)CCC1(O)Cn1cnc(-c2ccccc2F)cc1=O (racemic) [Example 67, (R,S)-3-((1-(3-Cyclohexyl-1H-pyrazole-4-carbonyl)-4-hydroxy-3,3-dimethylpiperidin-4-yl)methyl)-6-(2-fluorophenyl)pyrimidin-4(3H)-one] | 5 to 50
CC1(C)CN(C(=O)CCc2ccccc2)CCC1(O)Cn1cnc(-c2ccccc2F)cc1=O (racemic) [Example 68, (R,S)-6-(2-Fluorophenyl)-3-((4-hydroxy-3,3-dimethyl-1-(3-phenylpropanoyl)piperidin-4-yl)methyl)pyrimidin-4(3H)-one] | 5 to 50
CC(C)CC1(C(=O)N2CCC(O)(Cn3cnc(-c4ccccc4F)cc3=O)C(C)(C)C2)CC1 (racemic) [Example 69, (R,S)-6-(2-Fluorophenyl)-3-((4-hydroxy-1-(1-isobutylcyclopropane-1-carbonyl)-3,3-dimethylpiperidin-4-yl)methyl)pyrimidin-4(3H)-one] | 5 to 50
CC(C)(CC(=O)N1CCC(O)(Cn2cnc(-c3ccccc3F)cc2=O)C(C)(C)C1)c1ccccc1 (racemic) [Example 70, (R,S)-6-(2-Fluorophenyl)-3-((4-hydroxy-3,3-dimethyl-1-(3-methyl-3-phenylbutanoyl)piperidin-4-yl)methyl)pyrimidin-4(3H)-one] | 5 to 50
CC1(C)CN(C(=O)CCC2CCCCC2)CCC1(O)Cn1cnc(-c2ccccc2F)cc1=O (racemic) [Example 78, (R,S)-3-((1-(3-Cyclohexylpropanoyl)-4-hydroxy-3,3-dimethylpiperidin-4-yl)methyl)-6-(2-fluorophenyl)pyrimidin-4(3H)-one] | 0.5 to 5
CC(C)N(C)C(=O)c1cn(CC2(O)CCN(C(=O)CCC3CCC3)CC2(C)C)c(=O)cc1-c1ccccc1 (racemic) [Example 79, (R,S)-1-((1-(3-Cyclobutylpropanoyl)-4-hydroxy-3,3-dimethylpiperidin-4-yl)methyl)-N-isopropyl-N-methyl-6-oxo-4-phenyl-1,6-dihydropyridine-3-carboxamide] | 0.5 to 5
CCCCC(CC)C(=O)N1CCC(O)(Cn2cc(C(=O)N(C)C(C)C)c(-c3ccccc3)cc2=O)CC1 (racemic) [Example 80, (R,S)-1-((1-(2-Ethylhexanoyl)-4-hydroxypiperidin-4-yl)methyl)-N-isopropyl-N-methyl-6-oxo-4-phenyl-1,6-dihydropyridine-3-carboxamide] | 5 to 50
CC1(C(=O)N2CCC(O)(Cn3cnc(-c4ccccc4F)cc3=O)C(C)(C)C2)CCCCC1 (racemic) [Example 81, (R,S)-6-(2-Fluorophenyl)-3-((4-hydroxy-3,3-dimethyl-1-(1-methylcyclohexane-1-carbonyl)piperidin-4-yl)methyl)pyrimidin-4(3H)-one] | 50 to 250
CC1(C)CN(C(=O)CCC2CC2)CCC1(O)Cn1cnc(-c2ccccc2F)cc1=O (racemic) [Example 83, (R,S)-3-((1-(3-Cyclopropylpropanoyl)-4-hydroxy-3,3-dimethylpiperidin-4-yl)methyl)-6-(2-fluorophenyl)pyrimidin-4(3H)-one] | 50 to 250
C[C@H](CC(=O)N1CCC(O)(Cn2cc(Br)c(-c3ccccc3)cc2=O)CC1)c1ccccc1 [Example 1, (R)-5-Bromo-1-((4-hydroxy-1-(3-phenylbutanoyl)piperidin-4-yl)methyl)-4-phenylpyridin-2(1H)-one] | 50 to 250
O=C(CCc1ccccc1)N1CCC(O)(Cn2cnc(-c3ccccc3F)cc2=O)CC1 [Example 2, 6-(2-Fluorophenyl)-3-((4-hydroxy-1-(3-phenylpropanoyl)piperidin-4-yl)methyl)pyrimidin-4(3H)-one] | 50 to 250
O=C(CCC1CCC1)N1CCC(O)(Cn2cnc(-c3ccccc3F)cc2=O)CC1 [Example 3, 3-((1-(3-Cyclobutylpropanoyl)-4-hydroxypiperidin-4-yl)methyl)-6-(2-fluorophenyl)pyrimidin-4(3H)-one] | 50 to 250
O=C(CCC1CCCC1)N1CCC(O)(Cn2cnc(-c3ccccc3F)cc2=O)CC1 [Example 4, 3-((1-(3-Cyclopentylpropanoyl)-4-hydroxypiperidin-4-yl)methyl)-6-(2-fluorophenyl)pyrimidin-4(3H)-one] | 50 to 250
CC(=O)Nc1cccc(-c2cn(CC3(O)CCN(C(=O)C[C@@H](C)c4ccccc4)CC3)c(=O)cc2-c2ccccc2)c1 [Example 6, (R)—N-(3-(1-((4-Hydroxy-1-(3-phenylbutanoyl)piperidin-4-yl)methyl)-6-oxo-4-phenyl-1,6-dihydropyridin-3-yl)phenyl)acetamide] | 5 to 50
C[C@H](CC(=O)N1CCC(O)(Cn2cc(-c3cccc(C(N)=O)c3)c(-c3ccccc3)cc2=O)CC1)c1ccccc1 [Example 7, (R)-3-(1-((4-Hydroxy-1-(3-phenylbutanoyl)piperidin-4-yl)methyl)6-oxo-4-phenyl-1,6-dihydropyridin-3-yl)benzamide] | 0.5 to 5
C[C@H](CC(=O)N1CCC(O)(Cn2cc(-c3ccco3)c(-c3ccccc3)cc2=O)CC1)c1ccccc1 [Example 8, (R)-5-(Furan-2-yl)-1-((4-hydroxy-1-(3-phenylbutanoyl)piperidin-4-yl)methyl)-4-phenylpyridin-2(1H)-one] | 5 to 50
C[C@H](CC(=O)N1CCC(O)(Cn2cc(-c3ccnn3C)c(-c3ccccc3)cc2=O)CC1)c1ccccc1 [Example 9, (R)-1-((4-Hydroxy-1-(3-phenylbutanoyl)piperidin-4-yl)methyl)-5-(1-methyl-1H-pyrazol-5-yl)-4-phenylpyridin-2(1H)-one] | 5 to 50
C[C@H](CC(=O)N1CCC(O)(Cn2cc(-c3ccccc3)c(Cl)cc2=O)CC1)c1ccccc1 [Example 10, (R)-4-Chloro-1-((4-hydroxy-1 (3-phenylbutanoyl)piperidin-4-yl)methyl)-5-phenylpyridin-2(1H)-one] | 50 to 250
C[C@H](CC(=O)N1CCC(O)(Cn2cc(-c3ccccc3)c(N(C)C)cc2=O)CC1)c1ccccc1 [Example 11, (R)-4-(Dimethylamino)-1-((4-hydroxy-1-(3-phenylbutanoyl)piperidin-4-yl)methyl)-5-phenylpyridin-2(1H)-one] | 50 to 250
